Measurements: patent US12583848B2, “Isoxazole-3-carboxamide derivatives and their use for treatment of diseases caused by virus infection” (Collaborations Pharmaceuticals, Inc., priority 2019, dated 2026)

How the values were obtained:
[1] = tested on: poliovirus; conditions: mouse, in vivo; cited from earlier work
[2] = tested on: poliomyelitis virus; conditions: cited from earlier work
[3] = tested on: rhinovirus B14 (RV-B14); assay: organism not typed; format: cell-based; conditions: HeLa, 72 h, read-out: IC50 against Rhinoviruses (RV) RV-B14
[4] = tested on: CVB3 97927-I1207M (pleconaril-resistant variant); format: cell-based, coxsackievirus B3
[5] = tested on: rhinovirus A2 (RV-A2); assay: organism not typed; format: cell-based; conditions: HeLa, 72 h, read-out: IC50 against Rhinoviruses (RV) RV-A2
[6] = tested on: HeLa cells; conditions: human
[7] = tested on: Escherichia coli PQ37
[8] = tested on: CVB3 97927-I1207K (pleconaril-resistant variant); format: cell-based, coxsackievirus B3
[9] = tested on: CVB3 97927-I1207T (pleconaril-resistant variant); format: cell-based, coxsackievirus B3
[10] = tested on: rhinovirus B5 (RV-B5); assay: organism not typed; format: cell-based; conditions: HeLa cells, CPE inhibition, 72 hours; n.a. = not active; read-out: IC50 against Rhinoviruses (RV) RV-B5
[11] = tested on: coxsackievirus B3 I1207K and I1207R; conditions: in vitro; cited from earlier work
[12] = tested on: clinical isolates of enterovirus serotypes; conditions: most of 215 clinical isolates of enterovirus serotypes; cited from earlier work
[13] = in vitro; conditions: human, HeLa cells
[14] = target: PXR (Homo sapiens, UniProt O75469); assay: biochemical
Chain of PXR (O75469 111-434 limits assumed): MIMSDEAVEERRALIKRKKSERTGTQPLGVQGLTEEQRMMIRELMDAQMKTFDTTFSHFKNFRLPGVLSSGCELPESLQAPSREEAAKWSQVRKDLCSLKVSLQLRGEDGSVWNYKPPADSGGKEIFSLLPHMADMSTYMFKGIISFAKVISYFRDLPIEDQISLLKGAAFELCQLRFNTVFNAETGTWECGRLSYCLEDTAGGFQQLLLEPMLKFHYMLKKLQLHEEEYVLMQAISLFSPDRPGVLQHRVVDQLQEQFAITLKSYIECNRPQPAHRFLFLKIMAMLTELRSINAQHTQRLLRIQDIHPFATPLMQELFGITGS

[15] = tested on: Enterovirus D68 (EV-D68 MP30 PP); format: in vivo, AG129 mice; conditions: guanidine 100 mg/kg/d IP, days 1 and 3 post-infection

Compound | poliovirus-induced paralysis and death [1] | replication of poliomyelitis virus in vitro [2] | IC50 [3] | IC50 [4] | IC50 [5] | CC50 [6] | Mutagenicity [7] | IC50 [8] | IC50 [9] | IC50 [10] | antiviral activity against coxsackievirus B3 with I1207K or I1207R in VP1 [11] | IC50 [12] | CC50 [13] | IC50 [14] | lung virus titers compared to placebo [15]
CCC(=O)C(CCCCCCOc1ccc(OC)cc1Cl)C(=O)CC [Arildone] | prevents poliovirus-induced paralysis and death in mice | specifically inhibits replication of poliomyelitis virus in vitro |  |  |  |  |  |  |  |  |  |  |  |  | 
Cc1cc(-c2noc(C(F)(F)F)n2)cc(C)c1OCCCc1cc(C(=O)NCc2ccccc2)no1 [Compound 1, N-benzyl-5-(3-{2,6-dimethyl-4-[5-(trifluoromethyl)-1,2,4-oxadiazol-3-yl]phenoxy}propyl)isoxazole-3-carboxamide] |  |  | 0.25 µM | 13.1 µM | 0.23 µM | > 100 µM |  |  |  |  |  |  |  |  | 
CNC(=O)c1cc(CCCOc2c(C)cc(-c3noc(C(F)(F)F)n3)cc2C)on1 [Compound 2, 5-(3-{2,6-dimethyl-4-[5-(trifluoromethyl)-1,2,4-oxadiazol-3-yl]phenoxy}propyl)-N-methylisoxazole-3-carboxamide] |  |  | 0.02 µM | 0.37 µM | 0.21 µM | > 100 µM | NO |  |  |  |  |  |  |  | 
Cc1cc(-c2noc(C(F)(F)F)n2)cc(C)c1OCCCc1cc(C(N)=O)no1 [Compound 3, 5-(3-{2,6-dimethyl-4-[5-(trifluoromethyl)-1,2,4-oxadiazol-3-yl]phenoxy}propyl)isoxazole-3-carboxamide] |  |  | 0.22 µM | 1.69 µM | 0.5 µM | > 100 µM |  |  |  |  |  |  |  |  | 
Cc1cc(-c2noc(C(F)(F)F)n2)cc(C)c1OCCCc1cc(C(=O)N(C)C)no1 [Compound 4, 5-(3-{2,6-dimethyl-4-[5-(trifluoromethyl)-1,2,4-oxadiazol-3-yl]phenoxy}propyl)-N,N-dimethylisoxazole-3-carboxamide] |  |  | 0.12 µM | < 0.03 µM | 0.12 µM | 13.2 µM | NO | 8.52 µM | 1.01 µM |  |  |  |  |  | 
COc1cc(-c2noc(C(F)(F)F)n2)ccc1OCCCc1cc(C(=O)N(C)C)no1 [Compound 6, 5-(3-{2-methoxy-4-[5-(trifluoromethyl)-1,2,4-oxadiazol-3-yl]phenoxy}propyl)-N,N-dimethylisoxazole-3-carboxamide] |  |  | 0.04 µM | 0.6 µM | 1.97 µM | 68 µM |  | 51.7 µM | 1.66 µM | 3.28 µM |  |  |  |  | 
CN(C)C(=O)c1cc(CCCOc2ccc(-c3noc(C(F)(F)F)n3)cc2[N+](=O)[O-])on1 [Compound 7, N,N-dimethyl-5-(3-{2-nitro-4-[5-(trifluoromethyl)-1,2,4-oxadiazol-3-yl]phenoxy}propyl)isoxazole-3-carboxamide] |  |  | 0.28 µM | 0.001 µM | 0.67 µM | 22.5 µM | NO | 6.46 µM | 0.03 µM | 7.63 µM |  |  |  |  | 
CN(C)C(=O)c1cc(CCCOc2ccc(-c3noc(C(F)(F)F)n3)cc2F)on1 [Compound 9, 5-(3-{2-fluoro-4-[5-(trifluoromethyl)-1,2,4-oxadiazol-3-yl]phenoxy}propyl)-N,N-dimethylisoxazole-3-carboxamide] |  |  | 0.05 µM | 0.05 µM | 3.77 µM | 20.2 µM |  |  | 1.43 µM | 4.04 µM |  |  |  |  | 
COc1cc(-c2noc(C(F)(F)F)n2)cc([N+](=O)[O-])c1OCCCc1cc(C(=O)N(C)C)no1 [Compound 10, 5-(3-{2-methoxy-6-nitro-4-[5-(trifluoromethyl)-1,2,4-oxadiazol-3-yl]phenoxy}propyl)-N,N-dimethylisoxazole-3-carboxamide] |  |  | 0.2 µM | 0.88 µM | 0.32 µM | 25.6 µM |  |  | 0.84 µM |  |  |  |  |  | 
CN(C)C(=O)c1cc(CCCOc2ccc(-c3noc(C(F)(F)F)n3)cc2)on1 [Compound 11, N,N-dimethyl-5-(3-{4-[5-(trifluoromethyl)-1,2,4-oxadiazol-3-yl]phenoxy}propyl)isoxazole-3-carboxamide] |  |  | 0.04 µM | 0.02 µM | 4.61 µM | 28 µM |  | 27.5 µM | 8.11 µM | 1.74 µM |  |  |  |  | 
CN(C)C(=O)c1cc(CCCOc2ccc(-c3noc(C(F)(F)F)n3)cc2C(F)(F)F)on1 [Compound 12, N,N-dimethyl-5-(3-{2-(trifluoromethyl)-4-[5-(trifluoromethyl)-1,2,4-oxadiazol-3-yl]phenoxy}propyl)isoxazole-3-carboxamide] |  |  | 6.76 µM | 0.16 µM | 0.32 µM | 19.2 µM | NO | 7.18 µM | 0.53 µM |  |  |  |  |  | 
CNC(=O)c1cc(CCCOc2ccc(-c3noc(C(F)(F)F)n3)cc2C(F)(F)F)on1 [Compound 13, N-methyl-5-(3-{2-(trifluoromethyl)-4-[5-(trifluoromethyl)-1,2,4-oxadiazol-3-yl]phenoxy}propyl)isoxazole-3-carboxamide] |  |  |  | 0.06 µM | 0.96 µM | > 100 µM |  |  | 1.04 µM |  |  |  |  |  | 
Cc1cc(CCCOc2c(C)cc(-c3noc(C(F)(F)F)n3)cc2C)on1 [Pleconaril, reference compound] |  |  | 0.06 µM | 4.5 µM |  |  |  |  | 9.41 µM |  | completely abolish the antiviral activity | ≤ 0.03 µM | 45.2 µM | > 100 µM | 
Guanidine HCl [Gua- HCl, reference compound] |  |  |  | 725 µM |  |  |  | 705 µM | 807 µM |  |  |  |  |  | reduction in virus titers
